Measurements taken from patent US12703685B2, “Crystalline forms of solvates of tryptophan derivatives, compositions comprising them and uses thereof” (GALIMEDIX THERAPEUTICS INC., priority 2020, dated 2026).
Square brackets hold non-standard residues; d marks the D form. Peptide text beside a SMILES is read from it. Aib = CC(C)(N)C(=O)O

Columns and labels:
[1] = Stability test of the crystalline salt at 50° C.; type: physicochemical; settings: 48 hours
[2] = Hygroscopicity at 58-60% relative humidity; type: physicochemical; settings: 20-25° C.
[3] = DSC heating above the melting point, residue analyzed by TLC; type: physicochemical; settings: DSC heating cycle
From the text: During the second heating cycle the peak of melting was missing, only the high temperature decomposition was observed. […]

[4] = 50° C.
[5] = Oral bioavailability; settings: in vivo, rodents
Description: In some embodiments a pharmaceutical composition of the invention is an oral administration form. […] In some embodiments, the oral availability of the pharmaceutical composition of the invention is in the range of 10%. In another embodiment, the oral availability of the pharmaceutical composition of the invention is above 10%. In some embodiments the pharmaceutical composition is administered once a day, twice a day or three times a day.

[6] = Solubility in water

SMILES	stability of crystalline salt (degradation) [1]	hygroscopicity: weight increase of crystals ([2]; 24 hours)	hygroscopicity: weight increase of crystals ([2]; 48 hours)	decomposition after heating above the melting point [3]	stability of 70 w/w % aqueous solution (degradation) ([4]; 48 hours)	thermal stability of 70 w/w % solution in water (decomposition by TLC) ([4]; N2 atmosphere, 24 hrs)	bioavailability [5]	solubility of crystalline forms [6]	Solubility at 24° C. ([6]; deionized water, 24° C., stirred 1 hr, filtered, filtrate evaporated)	solubility in water (concentration of solution) ([6]; deionized water, room temperature)
CC(C)(NC(=O)[C@H](N)Cc1c[nH]c2ccccc12)C(=O)O [UB-18813] (H-[dW]-[Aib]-OH)	no degradation was observed	2.64%	3.4%	no decomposition	no degradation was observed	No traces of decomposition				
CC(C)(NC(=O)[C@H](N)Cc1c[nH]c2ccccc12)C(=O)O [compound (1)] (H-[dW]-[Aib]-OH)							~5%	very poor solubility	1.3 w/w %	1.3 w/w %
